Patent US20230077362A1 (CORTEVA AGRISCIENCE LLC, priority 2019, published 2023)

How the values were obtained:
Format in all cases: in vivo
[1] = tested on: Diamondback Moth (Plutella xylostella) ("DBM"); assay: Bioassay on Diamondback Moth (DBM), Example D, procedure of Example A; conditions: 0.00005 ppm, read-out: DBM % Control (or Mortality) Rating
Description: (§1) Example D: Bioassays on Cabbage Looper (Trichoplusia ni) (“CL”) and Diamondback Moth (Plutella xylostella) (“DBM”)
(§2) Certain molecules disclosed in this document were tested against CL and DBM (diamondback moth, Plutella xylostella) using procedures described above for BAW and CL (Example A). The results are reported as in the “CL & DBM Rating Table” at concentrations of 0.0005 and 0.00005 ppm, respectively, and are given Table D.

[2] = tested on: Cabbage Looper (Trichoplusia ni) ("CL"); assay: Bioassay on Cabbage Looper (CL), Example D, procedure of Example A; conditions: read-out: CL % Control (or Mortality) Rating
Description: as §1, §2

[3] = tested on: Yellow Fever Mosquito "YFM" (Aedes aegypti), about 1 day-old larvae; assay: Bioassay on yellow fever mosquito (YFM), 96-well plate larval assay; conditions: Yellow Fever Mosquito (Aedes aegypti) larvae, scored on mortality after 3 days; C = Not Tested
Description: Example C: Bioassays on Yellow Fever Mosquito “YFM” (Aedes aegypti)
Certain molecules disclosed in this document were tested against YFM using procedures described in the following paragraph. In the reporting of the results, the “YFM Rating Table” was used (See Table Section).
Master plates containing 400 μg of a molecule dissolved in 100 μL of dimethyl sulfoxide (DMSO) (equivalent to a 4000 ppm solution) are used. A master plate of assembled molecules contains 15 μL per well. To this plate, 135 μL of a 90:10 water:acetone mixture is added to each well. A robot (Biomek® NXP Laboratory Automation Workstation) is programmed to dispense 15 μL aspirations from the master plate into an empty 96-well shallow plate (“daughter” plate). There are 6 reps (“daughter” plates) created per master. The created daughter plates are then immediately infested with YFM larvae.
The day before plates are to be treated, mosquito eggs are placed in Millipore water containing liver powder to begin hatching (4 g. into 400 mL). After the daughter plates are created using the robot, they are infested with 220 μL of the liver powder/larval mosquito mixture (about 1 day-old larvae). After plates are infested with mosquito larvae, a non-evaporative lid is used to cover the plate to reduce drying. Plates are held at room temperature for 3 days prior to grading. After 3 days, each well is observed and scored based on mortality.

[4] = tested on: Beet Armyworm (Spodoptera exigua) ("BAW"), second instar larvae; assay: Bioassay on beet armyworm (BAW), 128-well diet tray assay; conditions: Spodoptera exigua, read-out: BAW (Biological Results, rating)
Outline: (§3)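 Sealed trays, 25° C., 14:10 light:dark, 5–7 d. Per-well % mortality recorded, mean of eight wells reported.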

[5] = tested on: Cabbage Looper (Trichoplusia ni) ("CL"), second instar larvae; assay: Bioassay on cabbage looper (CL), 128-well diet tray assay; conditions: Trichoplusia ni, read-out: CL (Biological Results, rating)
Outline: as §3

[6] = tested on: Green Peach Aphid ("GPA") (Myzus persicae), wingless adult and nymph stages; assay: Bioassay on green peach aphid (GPA), foliar spray on infested cabbage seedlings; conditions: Myzus persicae, foliar, 72 h, read-out: GPA (Biological Results, rating)
Outline: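 Values are corrected % control, 100*(X−Y)/X, from live aphid counts per plant under a microscope, treated versus solvent-check plants. Four infested seedlings (20-50 GPA each) per treatment were sprayed to runoff and kept three days near 25° C at ambient RH.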

Cc1ccc(C(F)(F)F)c(N2C(=O)CS/C2=N\C(=O)NCCc2ccc(-c3ncn(-c4ccc(OC(F)(F)F)cc4)n3)cc2)c1 [Compound H1]
mortality at 5e-05 ppm [1]: 16 to 50% | mortality at 0.0005 ppm [2]: 16 to 50% | YFM (Biological Results, rating) [3]: A (80-100) | pest or weed control at 50 µg/cm2 [4]: 50 to 100% | pest or weed control at 50 µg/cm2 [5]: 50 to 100% | pest or weed control at 200 µg/mL [6]: 0 to 80%

Cc1ccc(C(F)(F)F)c(N2C(=O)CS/C2=N\C(=O)NCC(F)c2ccc(-c3ncn(-c4ccc(OC(F)(F)F)cc4)n3)cc2)c1 (stereo not drawn) [Compound H2]
mortality at 5e-05 ppm [1]: 51 to 100% | mortality at 0.0005 ppm [2]: 51 to 100% | pest or weed control at 50 µg/cm2 [4]: 50 to 100% | pest or weed control at 50 µg/cm2 [5]: 50 to 100% | pest or weed control at 200 µg/mL [6]: 80 to 100%

Cc1ccc(C(F)(F)F)c(N2C(=O)CS/C2=N\C(=O)Nc2ccc(-c3ncn(-c4ccc(OC(F)(F)F)cc4)n3)cc2)c1 [Compound H20]
mortality at 5e-05 ppm [1]: 51 to 100% | mortality at 0.0005 ppm [2]: 16 to 50% | pest or weed control at 50 µg/cm2 [4]: 50 to 100% | pest or weed control at 50 µg/cm2 [5]: 50 to 100% | pest or weed control at 200 µg/mL [6]: 0 to 80%

Cc1ccc(C)c(N2C(=O)CS/C2=N\C(=O)Nc2ccc(-c3ncn(-c4ccc(OC(F)(F)F)cc4)n3)cc2)c1 [Compound C2]
mortality at 5e-05 ppm [1]: 0 to 15% | mortality at 0.0005 ppm [2]: 0 to 15% | pest or weed control at 50 µg/cm2 [4]: 50 to 100% | pest or weed control at 50 µg/cm2 [5]: 50 to 100% | pest or weed control at 200 µg/mL [6]: 0 to 80%
